Like-named read-outs stand apart in the source and are kept apart here.

Assay [1] has as its target NSP14 (Severe acute respiratory syndrome coronavirus 2, UniProt P0DTD1). As to the kind of experiment: NSP14 DSF thermal shift assay. It is filed as binding, SARS-CoV-2. The note with it: 1 mM compound. The protocol:
In technical triplicate, NSP14 (0.15 mg mL^–1) was prepared in 20 mM HEPES pH 7.5, 200 mM NaCl, 1 mM TCEP, and 2 mM MgCl2 and mixed with 1 mM compound or 2% DMSO. Samples were rested for 10 min and then mixed with SYPRO Orange (3× concentration, Invitrogen No. S6650). Raw melting curves (25–99 °C, 0.05 °C C/s, 20 μL volume) were collected on a QuantStudio 3 (Applied Biosystems) and each replicate well was individually normalized from 0 to 100 prior to averaging.

Assay [2] addresses T1, NSP14 ExoN (Severe acute respiratory syndrome coronavirus 2, UniProt P0DTD1). As to the kind of experiment: biochemical.
Assay [3] relates to substrate dsRNA. As to the kind of experiment: Thiazole orange dsRNA intercalation (competition) counter-screen. The class given is binding. The following applies: final 0.5% DMSO. As for the experimental part:
RNase T1 inhibition assay and thiazole orange RNA intercalation counter-screening assays were conducted essentially as previously reported. The TR-FRET ExoN activity assay dsRNA substrate and Assay Buffer were used for the intercalation assay and mixed with compounds in a final 0.5% DMSO.
(In general: Counterscreens check selectivity or assay interference.)

In assay [4] the target is T1, NSP14 ExoN. Details: method as in not given. The note with it: small biochemical screens; promiscuous compounds; ref not given; cited from earlier work.
The mark [5] stands for this setting: biochemically active (first) batch.
Setting [6] is: original (first) compound batches, read-out: pIC50, inhibition of NSP14 ExoN in biochemical activity assay (converted).
[7] abbreviates: resynthesized, more stringently purified second batch.

Take `CC(C)c1csc(CNC(=O)c2cc[nH]n2)n1` [Compound 3]: the “NSP14 destabilization by differential scanning fluorimetry (DSF)” value in assay [1] (setting [5]) is “evidence of NSP14 destabilization”; in assay [1] (biochemically inactive second batch) it was “did not”. The IC50 in assay [2] (setting [6]) was 2.51 µM. In addition, the “Activity of second batches against NSP14 ExoN” value (shortened to “Activity of second batches”) in assay [2] (setting [7]) was “inactive”. For the molecule `C=Cc1csc(CNC(=O)c2cc[nH]n2)n1` [Compound 5], the IC50 in assay [2] (setting [6]) is 251 µM. Consider `O=C(NCc1nc(C2CC2)cs1)c1cc(CNCC2CC2)[nH]n1` [Compound 12, 5-(((Cyclopropylmethyl)amino)methyl)-N-((4-cyclopropylthiazol-2-yl)methyl)-1H-pyrazole-3-carboxamide], for which the “Binding to substrate dsRNA by thiazole orange competition assay” value in assay [3] is recorded as “neither bound to substrate dsRNA”. Besides, in assay [1] (setting [5]), the “NSP14 destabilization by differential scanning fluorimetry (DSF)” value is given as “evidence of NSP14 destabilization”. Moreover, in assay [2], the “Activity of second batches” value was “inactive”. `O=C(NCc1nc(C2CC2)cs1)c1n[nH]c2ncccc12` [Compound 14]: the IC50 in assay [2] (setting [6]) was 158 µM. For the molecule `O=C(O)C1=CC(=C(c2ccc(O)c(C(=O)O)c2)c2ccc(O)c(C(=O)O)c2)C=CC1=O` [aurintricarboxylic acid], in assay [4], the “Inhibition of NSP14 ExoN (in words)” value is listed as “can inhibit NSP14 ExoN”. In the case of `CC(C)c1csc(CNC(=O)c2cc(CNCC3CC3)[nH]n2)n1` [Compound 16], the IC50 in assay [2] (setting [6]) is above 501 µM. Turning to `O=C(NCc1nc(C2CC2)cs1)c1cc[nH]n1` [Compound 6], the IC50 in assay [2] (setting [6]) was 50.1 µM. For the same molecule, the “Activity of second batches” value in assay [2] (setting [7]) was “inactive”. Regarding `O=c1c2ccccc2[se]n1-c1ccccc1` [ebselen], the “Inhibition of NSP14 ExoN (in words)” value in assay [4] is reported as “can inhibit NSP14 ExoN”. As for `CC(=O)NCc1cc(C(=O)NCc2nc(C3CC3)cs2)n[nH]1` [Compound 13], the “Binding to substrate dsRNA by thiazole orange competition assay” value in assay [3] is given as “neither bound to substrate dsRNA”. For the same molecule, in assay [1] (setting [5]), the “NSP14 destabilization by differential scanning fluorimetry (DSF)” value was “evidence of NSP14 destabilization”. Also, in assay [2], the “Activity of second batches” value was “inactive”. Regarding `CC(C)=CCOc1ccc(/C=C/C(=O)c2ccc(OCC=C(C)C)cc2OCC(=O)O)cc1` [sofalcone], the “Inhibition of NSP14 ExoN (in words)” value in assay [4] is listed as “can inhibit NSP14 ExoN”. Turning to `O=C1C=C2C(=CCOC2O)O1` (centres unmarked) [patulin], the “Inhibition of NSP14 ExoN (in words)” value in assay [4] is recorded as “can inhibit NSP14 ExoN”. On to `Cc1csc(CNC(=O)c2cc[nH]n2)n1` [Compound 2, reference compound], for which the IC50 in assay [2] (setting [6]) was above 501 µM. As for `C#Cc1nc(CNC(=O)c2cc[nH]n2)cs1` [Compound 4], in assay [2] (original (first) batch, n = 5, read-out: IC50, inhibition of NSP14 ExoN in biochemical activity assay (as printed in text for 4) (converted)), the IC50 was 158 µM. Regarding `CC(=O)NCc1cc(C(=O)NCc2nc(C(C)C)cs2)n[nH]1` [Compound 15], in assay [2] (setting [6]), the IC50 was above 501 µM. Turning to `Cc1cc(N2CCNCC2)nc(C)n1` [Compound 1, reference compound], in assay [2] (setting [6]), the IC50 was 398 µM.

The record behind these values is article PMC13010326, “Fragment-Based Development of NSP14 Exonuclease Inhibitors Confounded by Batch-to-Batch Variability” (ACS Chemical Biology, 2026).
